From paper PMC11033495 (Pharmacology Research & Perspectives, 2024)
Where two headings read alike, the source gives them in different places.

Tests used:
[1] = assay type: in vivo, hCYP3A mice; settings: mean ± SD, n = 4
[2] = test system: CYP3A4; assay: In vivo DDI study: KCZ pretreatment before oral TRZ in mice fed ND or HCD; set-up: species or system hCYP3A mice; settings: for Percentage of decline in AUCRα-OH: 40 mg/kg KCZ oral 15 min before oral TRZ 1 mg/kg, versus vehicle
[3] = test system: CYP3A4; assay: Inhibition of TRZ hydroxylation by KCZ in pooled liver microsomes; assay type: biochemical, hCYP3A mice; settings: 0.01, 0.1 and 1 μM KCZ; pooled liver microsomes of ND and HCD mice
[4] = test system: CYP3A4; assay type: in vivo; settings: oral TRZ 1 mg/kg; hCYP3A mice fed HCD versus ND
[5] = test system: CYP3A4; assay: Plasma 4β-OH cholesterol as biomarker of CYP3A4 activity in mice fed ND or HCD; assay type: in vivo; settings: hCYP3A mice
[6] = hCYP3A mice fed CA-diet (CE-2 + 0.5% CA) for 1 week
[7] = hCYP3A mice fed ND (CE-2) for 1 week
[8] = both ND and HCD mice, 40 mg/kg KCZ oral, TRZ 1 mg/kg oral

## CC(C)CCC[C@@H](C)[C@H]1CC[C@H]2[C@@H]3CC=C4C[C@@H](O)CC[C@]4(C)[C@H]3CC[C@]12C [Cholesterol, cholesterol]
[1]; [6]
  Plasma concentration: 2250 ± 336 µg/mL
[1]; [7]
  Plasma concentration: 1361 ± 152 µg/mL

## CC(=O)N1CCN(c2ccc(OCC3COC(Cn4ccnc4)(c4ccc(Cl)cc4Cl)O3)cc2)CC1 (stereo not drawn) [KCZ, ketoconazole]
[2]; HCD mice
  Percentage of decline in AUCRα-OH: 46%
[2]; ND mice
  Percentage of decline in AUCRα-OH: 49%
[2]; [8]
  Effect of pretreatment on plasma concentrations of TRZ: tended to increase
  Effect of pretreatment on plasma concentrations of α-OH TRZ: decrease
[3]
  Effect on microsomal activity of TRZ hydroxylation in liver: inhibited

## C[C@H](CCC(=O)O)[C@H]1CC[C@H]2[C@@H]3[C@H](O)C[C@@H]4C[C@H](O)CC[C@]4(C)[C@H]3C[C@H](O)[C@]12C [CA, cholic acid]
[1]; [6]
  Plasma concentration: 1.35 ± 1.869 µg/mL
[1]; [7]
  Plasma concentration: 0.312 ± 0.243 µg/mL

## OCc1nnc2n1-c1ccc(Cl)cc1C(c1ccccc1Cl)=NC2 [α‐OH TRZ, α‐hydroxy triazolam]
[4]
  Plasma concentrations and AUC values in HCD mice compared with ND mice: lower

## Cc1nnc2n1-c1ccc(Cl)cc1C(c1ccccc1Cl)=NC2O (stereo not drawn) [4‐OH TRZ, 4‐hydroxy triazolam]
[4]
  Plasma concentrations and AUC values in HCD mice compared with ND mice: lower

## CC(C)CCC[C@@H](C)[C@H]1CC[C@H]2[C@@H]3CC=C4[C@@H](O)[C@@H](O)CC[C@]4(C)[C@H]3CC[C@]12C [4β‐OH cholesterol, 4β‐Hydroxy (4β‐OH) cholesterol]
[5]
  Plasma concentration ratio (4β-OH cholesterol/cholesterol), HCD versus ND: not significantly different
[5]; HCD versus ND
  Plasma level in mice fed HCD compared with mice fed ND: significantly higher
[5]; HCD versus ND, Figure S4A
  Increase of plasma level by HCD: about twofold

## Cc1nnc2n1-c1ccc(Cl)cc1C(c1ccccc1Cl)=NC2 [TRZ, triazolam, reference compound]
[4]
  Plasma concentrations and AUC values in HCD mice compared with ND mice: lower
